The values below come from US20250027127A1, “C[…] BACTERIA” (priority 2021, published 2025).

The conditions of series [1]: room temperature.
The next series has as its system Tcz9 T405Y. Format: cell-based, Actinomycete sp. AJS-327. Particulars: I mM substrate, IL culture, 48 hours.
For series [2], the system named is daurichromenic acid (DCA) synthase. Particulars: cited from earlier work.
The subject of the next series is Tcz9. The series is described as follows: In vitro assays with Tcz9 wild type and variants. The format is biochemical, Actinomycete sp. AJS-327. The conditions noted are these: 12 hours, 37° C., pH 7.5. The procedure:
(§1) The in vitro assays were performed following a modified procedure that was previously reported.^1 Assays (0.1 mL) contained 100 mM potassium phosphate buffer pH 7.5, 0.1 mg/mL^−1 catalase, 10 μL DMSO, 1 μL of a 20 mM stock solution of substrate and were initiated by addition of 20 μM wild type Clz9 or Tcz9 or their respective variants, unless otherwise altered to investigate the thermal and solvent effects on enzyme activity or product stability during time course experiments. Assays were allowed to incubate for 12 hat 37° C. before quenching with 150 μL acetonitrile. Assays were then centrifuged at 14000×g for 30 minutes and passed through a […] filter before injecting 50 μL of the solution for LC-MS analysis at a flow rate of 0.75 mL/min with a mobile phase combination of water+0.1% formic acid (A) and acetonitrile+0.1% formic acid (B) using a gradient as follows: 50% (B), 0 to 2 minutes; 50 to 100% (B), 2 to 10 min; 100% (B), 10 to 17 min; 100% to 50% (B), 17 to 18 min; 50% (B), 18 to 20 minutes.

The test system of another series is Clz9. The experiment in a line: In vitro assays with Clz9 wild type and variants. The conditions noted are these: 12 hours, 37° C., pH 7.5. Format: biochemical, Streptomyces sp. CNH-287. The protocol:
as §1

With `O=C1C=C2C(=C(O)/C1=c1\ccc3cc(Cl)c(Cl)n13)C(=O)n1c2cc(Cl)c1Cl` [compound 6], the “stability in aqueous solutions” value in series [1] is given as “unexpectedly stable”.

Consider `O=C1C=C2C(=C(O)/C1=c1/ccc3cc(Cl)c(Cl)n13)C(=O)n1c2cc(Cl)c1Cl` [compound 7], for which the “stability in aqueous solutions” value in series [1] is “unexpectedly stable”.

As for `CCCCCc1cc(O)c(C/C=C(\C)CCC=C(C)C)c(O)c1C(=O)O` [compound 12a, cannabigerolic acid], the “conversion of substrate to products 15a and 17a” value in the series with Tcz9 T405Y is “approximately 80%”. For the same molecule, the “activity with DCA synthase” value in series [2] was “no activity”. The “activity with wild type Tcz9” value with Tcz9 (5 mol %) was “showed activity”. In addition, in the series with Tcz9, the “activity with Tcz9 E368N” value is “consumed all”, the “activity with Tcz9 T124F” value was “abolished activity” and the “activity with Tcz9 T405Y” value is reported as “increased conversion”. In addition, the “activity with wild type Clz9” value in the series on Clz9 (5 mol %) was “showed activity”. For the same molecule, in the series with Clz9, the “activity with Clz9 F156T” value is “nearly consumed all” and the “activity with Clz9 T438Y” value was “increased conversion”.

Take `CC(C)=CCC/C(C)=C/Cc1c(O)cc(C)c(C(=O)O)c1O` [compound 12c, cannabigerorcinic acid]: the “activity with the Tcz9 enzymes (wild type and three variants)” value with Tcz9 was “slightly different activity profile than 12b and 12a”. Besides, the “activity with the Clz9 enzymes (wild type and three variants)” value with Clz9 is “slightly different activity profile than 12b and 12a”.

For the molecule `CC(C)=CCC/C(C)=C/CC/C(C)=C/Cc1c(O)cc(C)c(C(=O)O)c1O` [compound 19, grifolic acid], in the series with Tcz9, the “activity with Tcz9 T124F” value is recorded as “completely abolished activity”; the “activity with the Tcz9 enzymes (wild type and three variants)” value is on record as “three of the four Tcz9 enzymes fully consumed”. Also, in the series with Clz9, the “activity with the Clz9 enzymes (wild type and three variants)” value is “no activity”.
